Measured values: US11077115B2, “Rorgamma modulators and uses thereof” (Genfit, priority 2017, dated 2021)

Tests used:
human RORγt [1] = target: T1, human RORγt (Homo sapiens, UniProt P51449); assay: RORE Luciferase/RORγt transactivation assay (IL-17 promoter luciferase reporter in COS-7 cells); format: cell-based; parameters: V5-His (named only through the vector pcDNA3.1D/V5-His-TOPO); expressed in transfected cells; host or cells: COS-7 (monkey kidney); details: RORγt activity inhibition, luciferase activity in transfected COS-7 cells, 20 h
T1 sequence (P51449 1-497 isoform P51449-2): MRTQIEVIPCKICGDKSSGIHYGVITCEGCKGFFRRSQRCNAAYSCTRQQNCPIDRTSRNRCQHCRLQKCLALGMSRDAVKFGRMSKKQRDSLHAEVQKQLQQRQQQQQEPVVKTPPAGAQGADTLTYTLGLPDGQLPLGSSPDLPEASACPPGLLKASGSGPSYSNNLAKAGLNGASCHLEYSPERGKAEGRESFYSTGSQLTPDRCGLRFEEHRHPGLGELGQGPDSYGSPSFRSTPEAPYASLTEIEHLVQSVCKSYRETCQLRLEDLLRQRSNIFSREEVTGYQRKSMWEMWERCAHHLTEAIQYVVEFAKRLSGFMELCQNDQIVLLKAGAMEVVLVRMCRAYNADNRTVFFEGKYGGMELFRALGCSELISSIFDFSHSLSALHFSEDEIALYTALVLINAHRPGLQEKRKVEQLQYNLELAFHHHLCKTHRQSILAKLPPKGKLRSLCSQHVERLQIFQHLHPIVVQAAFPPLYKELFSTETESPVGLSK
Outline: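 COS-7 cells co-transfected with human RORγt and luciferase reporter driven by 4.3 kb IL-17 promoter with CNS enhancer, seeded in serum-free, phenol red-free DMEM. Compounds added at 0.3% DMSO final; luciferase read by Steady-Glo luminescence. IC50 (μM) and Emax (%) reported.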

[2] = target: T2, RORγt ligand-binding domain (RORγt-LBD) (Homo sapiens, UniProt P51449); assay: Time-resolved FRET (TR-FRET) RORγt coactivator assay (RIP140 peptide displacement); format: biochemical; details: ligand-dependent coactivator-RORγt binding
T2 construct: 20 nM recombinantly expressed RORγ-LBD fused to GST
T2 sequence (P51449 269-508 limits assumed): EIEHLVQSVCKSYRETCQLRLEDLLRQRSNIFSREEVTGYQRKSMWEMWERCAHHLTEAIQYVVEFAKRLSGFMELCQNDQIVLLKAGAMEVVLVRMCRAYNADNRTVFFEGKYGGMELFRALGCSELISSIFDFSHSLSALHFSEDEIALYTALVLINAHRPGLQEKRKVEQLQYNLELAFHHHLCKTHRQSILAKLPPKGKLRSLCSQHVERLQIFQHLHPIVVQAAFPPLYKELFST
Excerpt: Time-resolved FRET (TR-FRET) RORγt coactivator assay was used to identify RORγ modulator compounds with ligand-dependent coactivator displacement. The assay uses a d2-labeled anti-GST antibody, synthetic N-terminally biotinylated peptide which is derived from nuclear receptor coactivator protein RIP140, and a RORγt ligand-binding domain (RORγt-LBD) that is tagged with glutathione-S-transferase (GST). The influence of compounds on the RORγ-peptide interaction relies on the binding dependent energy transfer from a donor to an acceptor fluorophor attached to the binding partner of interest. […] For reduction of background from compound fluorescence, TR-FRET method makes use of generic fluorophore labels and time resolved detection.
The assays were done in a final volume of 20 μl in a 384 well plate in a CHAPS buffer (2 mM CHAPS; 1 mM DTT, 2 mM EDTA; 0.1% BSA), containing 20 nM recombinantly expressed RORγ-LBD fused to GST, 30 nM N-terminally biotinylated peptide, 1 nM streptavidin-terbium conjugate and 20 nM d2 labeled-anti-GST. Test compounds were diluted using 10 mM stock solution. The range of the final compound concentrations used in this test was from 0.3 nM to 30 μM (logarithmic scale). DMSO content of the samples was kept at 1%. The assay was equilibrated for 2 hours in the dark at room temperature in 384 well plates (Falcon). The signal was detected by an Ultra384 reader (TECAN). […] Compounds that promote coactivator displacement induce a concentration-dependent decrease in time-resolved fluorescent signal. Data were collected and analyzed using GraphPad Prism software (GraphPad Software V5.02, San Diego Calif. USA). IC50 in μM and E max in % were reported for each compound.

human RORγt [3] = target: T1, human RORγt; assay: IL-17 secretion from EL4 murine lymphoma overexpressing human RORγt; format: cell-based; parameters: V5-His (named only through the vector pcDNA3.1D/V5-His-TOPO); expressed in transfected cells; details: IL-17 secretion inhibition in human RORγt-transfected EL4 Tcells, PMA/ionomycin stimulation
Procedure: Murine EL-4 lymphoma cell line overexpressing human RORγt was used in this functional assay to assess compound ability to inhibit IL-17 cytokine secretion.
EL-4 cells are maintained in a standard culture medium RPMI supplemented with 10% fetal calf serum, 1% sodium pyruvate, 1% essential amino acids and 1% antibiotics at 37° C. in a humidified atmosphere of 5% CO2 and 95% air. Culture medium was changed every 2 days. EL4 cells were transfected with a plasmid encoding hRORγt (sequence identical to published sequence NM 001001523). […] Briefly, 1 μg of DNA/1 million cells was served to transfect EL-4 cells. Cell/DNA suspension was transferred into certified cuvette and the electroporation of RORγt plasmid was carried out using appropriate Nucleofector® program.
Cells were seeded in 96 well plates at a density of 150000 cells/well then treated with compounds of this invention at indicated concentrations and incubated for 24 hours at 37° C. in a humidified atmosphere of 5% CO2 and 95% air. EL-4 cells were pretreated with test compounds (RORγ modulators) and stimulated with PMA (10 ng/mL) and ionomycin (1 μM final concentration) in the presence of test compound concentrations for additional 24 h at 37° C. in a humidified atmosphere of 5% CO2 and 95% air. Subsequently, supernatants were collected (after centrifugation at 300 g for 10 minutes) to determine the concentrations of IL-17 by HTRF (CisBio, France) or ELISA (R&D Systems Europe) according to the manufacturer's protocols.

SMILES	IC50 (human RORγt [1])	IC50 [2]	IC50 (human RORγt [3])
Cc1ccc(C(NC(=O)Cc2cc(N3CCS(=O)(=O)CC3)ccc2C)c2ccc(C)o2)c(N2CCCCC2)c1 (stereo not drawn) [Cpd. 5, 2-[5-(1,1-dioxo-1-thiomorpholin-4-yl)-2-methylphenyl]-N-{[4-methyl-2-(piperidin-1-yl)phenyl](5-methylfuran-2-yl)methyl}acetamide]	0.1 to 1 µM	0.1 to 1 µM	0.1 to 1 µM
Cc1ccc(C(NC(=O)Cc2ccc(N3CCS(=O)(=O)CC3)cc2)c2ccc(C)o2)c(N2CCCCC2)c1 (stereo not drawn) [Cpd. 6, 2-[4-(1,1-dioxo-1-thiomorpholin-4-yl)phenyl]-N-{[4-methyl-2-(piperidin-1-yl)phenyl](5-methylfuran-2-yl)methyl}acetamide]	< 0.1 µM	< 1 µM	< 1 µM
COc1ccc(C(NC(=O)Cc2ccc(N3CCS(=O)(=O)CC3)c(C)c2)c2ccc(C)o2)c(N2CCC(C)CC2)c1 (stereo not drawn) [Cpd. 13, 2-[4-(1,1-dioxo-1-thiomorpholin-4-yl)-3-methylphenyl]-N-{[4-methoxy-2-(4-methylpiperidin-1-yl)phenyl](5-methylfuran-2-yl)methyl}acetamide]	0.1 to 1 µM	0.1 to 1 µM	0.1 to 1 µM
COc1ccc(C(NC(=O)Cc2ccc(N3CCS(=O)(=O)CC3)c(C)c2)c2ccc(C)o2)c(N(C)C)c1 (stereo not drawn) [Cpd. 15, N-{[2-(dimethylamino)-4-methoxyphenyl](5-methylfuran-2-yl)methyl}-2-[4-(1,1-dioxo-1-thiomorpholin-4-yl)-3-methylphenyl]acetamide]	0.1 to 1 µM	< 1 µM	< 1 µM
COc1ccc(C(NC(=O)Cc2ccc(N3CCS(=O)(=O)CC3)c(C)c2)c2ccc(C)o2)c(N2CC3CC3C2)c1 (stereo not drawn) [Cpd. 16, N-[(2-{3-azabicyclo[3.1.0]hexan-3-yl}-4-methoxyphenyl)(5-methylfuran-2-yl)methyl]-2-[4-(1,1-dioxo-1-thiomorpholin-4-yl)-3-methylphenyl]acetamide]	0.1 to 1 µM	< 1 µM	< 1 µM
Cc1ccc(C(NC(=O)Cc2ccc(N3CCS(=O)(=O)CC3)cc2C)c2ccc(C)o2)c(N2CCCCC2)c1 (stereo not drawn) [Cpd. 18, 2-[4-(1,1-dioxo-1-thiomorpholin-4-yl)-2-methylphenyl]-N-{[4-methyl-2-(piperidin-1-yl)phenyl](5-methylfuran-2-yl)methyl}acetamide]	< 0.1 µM	< 1 µM	< 1 µM
Cc1ccc(C(NC(=O)Cc2ccc(N3CCS(=O)(=O)CC3)cc2C)c2ccc(C)o2)c(C)c1 (stereo not drawn) [Cpd. 19, N-[(2,4-dimethylphenyl)(5-methylfuran-2-yl)methyl]-2-[4-(1,1-dioxo-1-thiomorpholin-4-yl)-2-methylphenyl]acetamide]	< 0.1 µM	< 1 µM	< 1 µM
COc1ccc(C(NC(=O)C2(c3cnc(N4CCS(=O)(=O)CC4)nc3)CC2)c2ccc(C)o2)c(C)c1 (stereo not drawn) [Cpd. 57, 1-[2-(1,1-dioxo-1-thiomorpholin-4-yl)pyrimidin-5-yl]-N-[(4-methoxy-2-methylphenyl)(5-methylfuran-2-yl)methyl]cyclopropane-1-carboxamide]	0.1 to 1 µM		1 to 10 µM
Cc1ccc(C(NC(=O)C2(c3ncc(N4CCS(=O)(=O)CC4)cc3C)CC2)c2ccc(C)o2)c(C)c1 (stereo not drawn) [Cpd. 72, N-[(2,4-dimethylphenyl)(5-methylfuran-2-yl)methyl]-1-[5-(1,1-dioxo-1-thiomorpholin-4-yl)-3-methylpyridin-2-yl]cyclopropane-1-carboxamide]	< 0.1 µM		< 1 µM

The remaining lines, values ahead:

IC50 (human RORγt [1])	IC50 [2]	IC50 (human RORγt [3])	SMILES
0.1 to 1 µM	< 1 µM	0.1 to 1 µM	O=C(Cc1ccc(N2CCS(=O)(=O)CC2)cc1)NC(c1ccccc1)c1ccccc1N1CCCCC1 (stereo not drawn) [Cpd. 1, 2-[4-(1,1-dioxo-1-thiomorpholin-4-yl)phenyl]-N-{phenyl[2-(piperidin-1-yl)phenyl]methyl}acetamide]
0.1 to 1 µM	< 1 µM	0.1 to 1 µM	Cc1ccc(C(NC(=O)Cc2ccc(N3CCS(=O)(=O)CC3)cc2)c2ccccc2)c(Br)c1 (stereo not drawn) [Cpd. 9, N-[(2-bromo-4-methylphenyl)(phenyl)methyl]-2-[4-(1,1-dioxo-1-thiomorpholin-4-yl)phenyl]acetamide]
0.1 to 1 µM	0.1 to 1 µM	0.1 to 1 µM	Cc1ccc(C(NC(=O)Cc2ccc(N3CCS(=O)(=O)CC3)c(C)c2)c2ccc(C)o2)c(C(F)(F)F)c1 (stereo not drawn) [Cpd. 10, 2-[4-(1,1-dioxo-1-thiomorpholin-4-yl)-3-methylphenyl]-N-{[4-methyl-2-(trifluoromethyl)phenyl](5-methylfuran-2-yl)methyl}acetamide]
0.1 to 1 µM	< 1 µM	0.1 to 1 µM	Cc1ccc(C(NC(=O)Cc2ccc(N3CCS(=O)(=O)CC3)c(C)c2)c2ccc(C)o2)c(Br)c1 (stereo not drawn) [Cpd. 11, N-[(2-bromo-4-methylphenyl)(5-methylfuran-2-yl)methyl]-2-[4-(1,1-dioxo-1-thiomorpholin-4-yl)-3-methylphenyl]acetamide]
< 0.1 µM	< 1 µM	< 1 µM	Cc1ccc(C(NC(=O)Cc2ccc(N3CCS(=O)(=O)CC3)c(C)c2)c2ccc(C)o2)c(N2CCCCC2)c1 (stereo not drawn) [Cpd. 12, 2-[4-(1,1-dioxo-1-thiomorpholin-4-yl)-3-methylphenyl]-N-{[4-methyl-2-(piperidin-1-yl)phenyl](5-methylfuran-2-yl)methyl}acetamide]
< 0.1 µM	< 1 µM	< 1 µM	Cc1ccc(C(NC(=O)Cc2cnc(N3CCS(=O)(=O)CC3)nc2)c2ccc(C)o2)c(N2CCCCC2)c1 (stereo not drawn) [Cpd. 20, 2-[2-(1,1-dioxo-1-thiomorpholin-4-yl)pyrimidin-5-yl]-N-{[4-methyl-2-(piperidin-1-yl)phenyl](5-methylfuran-2-yl)methyl}acetamide]
	0.1 to 1 µM	1 to 10 µM	Cc1ccc(C(NC(=O)C2(c3cc(N4CCS(=O)(=O)CC4)ccc3C)CC2)c2ccc(C)o2)c(C)c1 (stereo not drawn) [Cpd. 70, N-[(2,4-dimethylphenyl)(5-methylfuran-2-yl)methyl]-1-[5-(1,1-dioxo-1-thiomorpholin-4-yl)-2-methylphenyl]cyclopropane-1-carboxamide]
